Measured values published in patent publication US7117100B2, “Method for the compositional analysis of polymers” (Massachusetts Institute of Technology, priority 1999, dated 2006).

Legend:
heparinase III = molecular target: T1, heparinase III (Pedobacter heparinus, UniProt Q59289); assay: Cleavage of defined oligosaccharide substrates by heparinase III; type: biochemical, Flavobacterium heparinum
T1 construct: made in house
Excerpt: Secondary specificities of the heparinases have been observed, especially under exhaustive degradation conditions. As a part of ongoing investigations into the enzymology of heparinases, the relative rates of cleavage of I and G containing sites by heparinase I and III with defined substrates under different conditions have been measured. For instance heparinase III cleaves both at I and G containing linkages and not I2S [H. E. Conrad, Heparin Binding Proteins (Academic Press, San Diego, 1998).]. However, under the reaction conditions used in this study, there is a dramatic (8-10 fold) difference in the rates of cleavage, with I-containing linkages being clipped more slowly than G-containing linkages (FIG. 7A). […] Each reaction was followed by capillary electrophoresis. […] Under the “short” conditions of digest it is expected that only G-containing saccharides are cleaved to an appreciable extent. [Conditions for enzymatic digest of HLGAG oligosaccharides were set forth above, briefly, Digests were either designated as “short” or “exhaustive”. Short digests were completed with 50 nM enzyme for 10 minutes. Exhaustive digests were completed using 200 nM enzyme for either four hours or overnight. Partial nitrous acid cleavage was completed using a modification of published procedures. Briefly, to an aqueous solution of saccharide was added a 2× solution of sodium nitrite in HCl such that the concentration of nitrous acid was 2 mM and HCl was 20 mM. The reaction was allowed to proceed at room temperature with quenching of aliquots at various time points via the addition of 1 μL of 200 mM sodium acetate 1 mg/mL BSA pH 6.0. Exhaustive nitrous acid was completed by reacting saccharide with 4 mM nitrous acid in HCl overnight at room temperature.
Quite a few factors have severely limited and complicated prior art studies and interpretation of heparinase substrate specificity experiments. First, not only is a homogenous substrate preparation difficult, but also analyzing the substrates and products have been very challenging. […]

FGF-2 = FGF-2 (Homo sapiens, UniProt P09038); assay: Saccharide binding to FGF-2 immobilized on the MALDI surface, salt wash, MALDI-MS detection
Procedure: Protein preparation and immobilization. ATIII was incubated overnight with excess porcine mucosal heparin, then biotinylated with EZ-link sulfo-NHS biotin (Pierce). Canon NP Type E transparency film was taped to the MALDI sample plate and used as a protein immobilization surface. FGF-1 and FGF-2 were immobilized by spotting 1 μl of aqueous solution on the film and air-drying. ATIII was immobilized by first drying 4 μg neutravidin on the film surface, then adding biotinylated ATIII to the neutravidin spot. Heparin was removed by washing ten times with 1M NaCl and ten times with water.
Saccharide binding, selection and analysis. Saccharides were derived from a partial digest of porcine mucosal heparin by heparinase I. The hexasaccharide fraction was obtained by size exclusion chromatography on Biogel P-6 and lyophilized to dryness. Saccharides were bound to immobilized proteins by spotting 1 μl of aqueous solution on the protein spot for at least five minutes. Unbound saccharides were removed by washing with water fifteen times. […] All saccharides were detected as noncovalent complexes with (RG)19R using MALDI parameters described herein.
Isolation, Purification, and Selection of FGF binders from SMC heparan sulfate. […] After drying, the sample was washed, 2 pmol/μl (RG)19R in matrix was added, and the sample was analyzed as outlined above.

Heparinase II = assay: Incubation of hexasaccharide with heparinase II; type: biochemical
[1] = Cleavage of tetrasaccharides by heparinase I; type: biochemical; details: tetrasaccharide substrates, same study as FIG. 7A
Excerpt: (§1) Secondary specificities of the heparinases have been observed, especially under exhaustive degradation conditions. As a part of ongoing investigations into the enzymology of heparinases, the relative rates of cleavage of I and G containing sites by heparinase I and III with defined substrates under different conditions have been measured. For instance heparinase III cleaves both at I and G containing linkages and not I2S [H. E. Conrad, Heparin Binding Proteins (Academic Press, San Diego, 1998).]. However, under the reaction conditions used in this study, there is a dramatic (8-10 fold) difference in the rates of cleavage, with I-containing linkages being clipped more slowly than G-containing linkages (FIG. 7A). […] Each reaction was followed by capillary electrophoresis. […] Under the “short” conditions of digest it is expected that only G-containing saccharides are cleaved to an appreciable extent. [Conditions for enzymatic digest of HLGAG oligosaccharides were set forth above, briefly, Digests were either designated as “short” or “exhaustive”. Short digests were completed with 50 nM enzyme for 10 minutes. Exhaustive digests were completed using 200 nM enzyme for either four hours or overnight. Partial nitrous acid cleavage was completed using a modification of published procedures. […]

[2] = Relative rates of cleavage of tetrasaccharides by recombinant heparinase III, followed by capillary electrophoresis; type: biochemical
Excerpt: as §1

Chain of FGF-2 (P09038 134-288 limits assumed, species assumed): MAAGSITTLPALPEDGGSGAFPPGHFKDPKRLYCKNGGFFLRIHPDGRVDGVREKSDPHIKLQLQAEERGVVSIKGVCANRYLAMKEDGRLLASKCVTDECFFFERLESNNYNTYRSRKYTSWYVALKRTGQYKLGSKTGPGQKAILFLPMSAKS

Molecule: ΔU2SHNS,6SI2SHNS,6S
- Degradation by a commercial source of heparinase III (heparinase III; commercial enzyme, sulfatase contamination suggested): able to degrade
- Cleavage by recombinant heparinase III (heparinase III; recombinant enzyme without contamination by other heparin degrading enzymes): does not cleave

Molecule: ΔU2SHNS,6SI2SHNS,6SI2SHNS,6S [nonasulfated hexasaccharide]
- FGF-2 binder selected from SMC heparan sulfate (FGF-2; bovine aortic SMC HLGAG fragments digested with heparinase II, spotted on FGF-2): high affinity binder
- Structures remaining on immobilized FGF upon a salt wash (FGF-2; hexasaccharide fraction from incomplete heparinase I digestion of porcine intestinal mucosa heparin): remained

Molecule: ΔUHNH,6SGHNSIHNAc
- Cleavage by heparinase III (heparinase III; "short" digest conditions): cleavage occurs only at the G
- Cleavage by heparinase II (Heparinase II): only cleavage at the G and not the I was observed

B1: heparinase I: HLGAG degrading enzyme; clips at a glycosidic linkage before a 2-O sulfated iduronic acid (protein, UniProt Q05819 22-384, looked up)
Heparin lyase I: QQKKSGNIPYRVNVQADSAKQKAIIDNKWVAVGINKPYALQYDDKLRFNGKPSYRFELKAEDNSLEGYAAGETKGRTELSYSYATTNDFKKFPPSVYQNAQKLKTVYHYGKGICEQGSSRSYTFSVYIPSSFPDNATTIFAQWHGAPSRTLVATPEGEIKTLSIEEFLALYDRMIFKKNIAHDKVEKKDKDGKITYVAGKPNGWKVEQGGYPTLAFGFSKGYFYIKANSDRQWLTDKADRNNANPENSEVMKPYSSEYKTSTIAYKMPFAQFPKDCWITFDVAIDWTKYGKEANTILKPGKLDVMMTYTKNKKPQKAHIVNQQEILIGRNDDDGYYFKFGIYRVGNSTVPVTYNLSGYSETAR
- Linkage specificity of cleavage by heparinase I [1]: cleavage only occurs at I2S-containing linkages

B2: heparinase III: HLGAG degrading enzyme; cleaves at a glycosidic linkage before an unsulfated glucuronic acid (protein, UniProt Q59289 25-659, looked up)
Heparin-sulfate lyase: QSSSITRKDFDHINLEYSGLEKVNKAVAAGNYDDAAKALLAYYREKSKAREPDFSNAEKPADIRQPIDKVTREMADKALVHQFQPHKGYGYFDYGKDINWQMWPVKDNEVRWQLHRVKWWQAMALVYHATGDEKYAREWVYQYSDWARKNPLGLSQDNDKFVWRPLEVSDRVQSLPPTFSLFVNSPAFTPAFLMEFLNSYHQQADYLSTHYAEQGNHRLFEAQRNLFAGVSFPEFKDSPRWRQTGISVLNTEIKKQVYADGMQFELSPIYHVAAIDIFLKAYGSAKRVNLEKEFPQSYVQTVENMIMALISISLPDYNTPMFGDSWITDKNFRMAQFASWARVFPANQAIKYFATDGKQGKAPNFLSKALSNAGFYTFRSGWDKNATVMVLKASPPGEFHAQPDNGTFELFIKGRNFTPDAGVFVYSGDEAIMKLRNWYRQTRIHSTLTLDNQNMVITKARQNKWETGNNLDVLTYTNPSYPNLDHQRSVLFINKKYFLVIDRAIGEATGNLGVHWQLKEDSNPVFDKTKNRVYTTYRDGNNLMIQSLNADRTSLNEEEGKVSYVYNKELKRPAFVFEKPKKNAGTQNFVSIVYPYDGQKAPEISIRENKGNDFEKGKLNLTLTINGKQQLVLVP
- Difference in the rates of cleavage, I-containing linkages clipped more slowly than G-containing linkages ([2]; reaction conditions of this study): 8-10 fold
- Cleavage of G-containing linkages relative to I-containing linkages ([2]; recombinant heparinase III, tetrasaccharide substrates): roughly 10 times
